Assay results reported in US20260130395A1, “Water Dispersible Botanical Compositions” (Aquila Black Limited, priority 2021, published 2026).

Assay: Stability of cannabinoid compounds and Vitamin E components in Beverage 2 (AB Red) by LCMSMS
Assay type: physicochemical

CCCCCc1cc(O)c2c(c1)OC(C)(C)[C@@H]1CCC(C)=C[C@@H]21 [D9 THC, delta-9-tetrahydrocannabinol, reference compound]
stability over the entire period (in words) (AB Red stored at 8° C., 570 days): high degree of stability | stability over the entire period (in words) (AB Red stored at 21-25° C., 570 days): high degree of stability | Stability of Plant-Derived Cannabinoid Compounds in AB Red (stored at 8° C., 0 days): 12.9 µg/mL | Stability of Plant-Derived Cannabinoid Compounds in AB Red (stored at 8° C., 1 days): 13.0 µg/mL | Stability of Plant-Derived Cannabinoid Compounds in AB Red (stored at 8° C., 2 days): 13.0 µg/mL | Stability of Plant-Derived Cannabinoid Compounds in AB Red (stored at 8° C., 3 days): 12.7 µg/mL | Stability of Plant-Derived Cannabinoid Compounds in AB Red (stored at 8° C., 5 days): 13.0 µg/mL | Stability of Plant-Derived Cannabinoid Compounds in AB Red (stored at 8° C., 8 days): 12.6 µg/mL | Stability of Plant-Derived Cannabinoid Compounds in AB Red (stored at 8° C., 9 days): 12.7 µg/mL | Stability of Plant-Derived Cannabinoid Compounds in AB Red (stored at 8° C., 10 days): 12.8 µg/mL | Stability of Plant-Derived Cannabinoid Compounds in AB Red (stored at 8° C., 11 days): 12.8 µg/mL | Stability of Plant-Derived Cannabinoid Compounds in AB Red (stored at 8° C., 12 days): 12.9 µg/mL | Stability of Plant-Derived Cannabinoid Compounds in AB Red (stored at 8° C., 15 days): 12.9 µg/mL | Stability of Plant-Derived Cannabinoid Compounds in AB Red (stored at 8° C., 16 days): 12.7 µg/mL | Stability of Plant-Derived Cannabinoid Compounds in AB Red (stored at 8° C., 17 days): 12.6 µg/mL | Stability of Plant-Derived Cannabinoid Compounds in AB Red (stored at 8° C., 18 days): 12.8 µg/mL | Stability of Plant-Derived Cannabinoid Compounds in AB Red (stored at 8° C., 19 days): 12.7 µg/mL | Stability of Plant-Derived Cannabinoid Compounds in AB Red (stored at 8° C., 22 days): 12.7 µg/mL | Stability of Plant-Derived Cannabinoid Compounds in AB Red (stored at 8° C., 23 days): 12.9 µg/mL | Stability of Plant-Derived Cannabinoid Compounds in AB Red (stored at 8° C., 24 days): 12.9 µg/mL | Stability of Plant-Derived Cannabinoid Compounds in AB Red (stored at 8° C., 25 days): 12.9 µg/mL | Stability of Plant-Derived Cannabinoid Compounds in AB Red (stored at 8° C., 26 days): 12.7 µg/mL | Stability of Plant-Derived Cannabinoid Compounds in AB Red (stored at 8° C., 29 days): 12.7 µg/mL | Stability of Plant-Derived Cannabinoid Compounds in AB Red (stored at 8° C., 30 days): 12.9 µg/mL | Stability of Plant-Derived Cannabinoid Compounds in AB Red (stored at 8° C., 60 days): 12.5 µg/mL | Stability of Plant-Derived Cannabinoid Compounds in AB Red (stored at 8° C., 90 days): 13.0 µg/mL | Stability of Plant-Derived Cannabinoid Compounds in AB Red (stored at 8° C., 120 days): 12.4 µg/mL | Stability of Plant-Derived Cannabinoid Compounds in AB Red (stored at 8° C., 150 days): 12.8 µg/mL | Stability of Plant-Derived Cannabinoid Compounds in AB Red (stored at 8° C., 180 days): 12.6 µg/mL | Stability of Plant-Derived Cannabinoid Compounds in AB Red (stored at 8° C., 210 days): 12.3 µg/mL | Stability of Plant-Derived Cannabinoid Compounds in AB Red (stored at 8° C., 240 days): 12.4 µg/mL | Stability of Plant-Derived Cannabinoid Compounds in AB Red (stored at 8° C., 270 days): 12.6 µg/mL | Stability of Plant-Derived Cannabinoid Compounds in AB Red (stored at 8° C., 300 days): 12.4 µg/mL | Stability of Plant-Derived Cannabinoid Compounds in AB Red (stored at 8° C., 330 days): 12.7 µg/mL | Stability of Plant-Derived Cannabinoid Compounds in AB Red (stored at 8° C., 360 days): 12.5 µg/mL | Stability of Plant-Derived Cannabinoid Compounds in AB Red (stored at 8° C., 390 days): 12.4 µg/mL | Stability of Plant-Derived Cannabinoid Compounds in AB Red (stored at 8° C., 420 days): 12.4 µg/mL | Stability of Plant-Derived Cannabinoid Compounds in AB Red (stored at 8° C., 450 days): 12.4 µg/mL | Stability of Plant-Derived Cannabinoid Compounds in AB Red (stored at 8° C., 480 days): 12.2 µg/mL | Stability of Plant-Derived Cannabinoid Compounds in AB Red (stored at 8° C., 510 days): 12.0 µg/mL | Stability of Plant-Derived Cannabinoid Compounds in AB Red (stored at 8° C., 540 days): 11.9 µg/mL | Stability of Plant-Derived Cannabinoid Compounds in AB Red (stored at 8° C., 570 days): 11.8 µg/mL | Stability of Plant-Derived Cannabinoid Compounds in AB Red (stored at 21-25° C., 0 days): 12.9 µg/mL | Stability of Plant-Derived Cannabinoid Compounds in AB Red (stored at 21-25° C., 1 days): 13.0 µg/mL | Stability of Plant-Derived Cannabinoid Compounds in AB Red (stored at 21-25° C., 2 days): 13.0 µg/mL | Stability of Plant-Derived Cannabinoid Compounds in AB Red (stored at 21-25° C., 3 days): 12.6 µg/mL | Stability of Plant-Derived Cannabinoid Compounds in AB Red (stored at 21-25° C., 5 days): 12.4 µg/mL | Stability of Plant-Derived Cannabinoid Compounds in AB Red (stored at 21-25° C., 8 days): 12.7 µg/mL | Stability of Plant-Derived Cannabinoid Compounds in AB Red (stored at 21-25° C., 9 days): 12.8 µg/mL | Stability of Plant-Derived Cannabinoid Compounds in AB Red (stored at 21-25° C., 10 days): 12.5 µg/mL | Stability of Plant-Derived Cannabinoid Compounds in AB Red (stored at 21-25° C., 11 days): 12.9 µg/mL | Stability of Plant-Derived Cannabinoid Compounds in AB Red (stored at 21-25° C., 12 days): 13.0 µg/mL | Stability of Plant-Derived Cannabinoid Compounds in AB Red (stored at 21-25° C., 15 days): 12.7 µg/mL | Stability of Plant-Derived Cannabinoid Compounds in AB Red (stored at 21-25° C., 16 days): 12.4 µg/mL | Stability of Plant-Derived Cannabinoid Compounds in AB Red (stored at 21-25° C., 17 days): 12.9 µg/mL | Stability of Plant-Derived Cannabinoid Compounds in AB Red (stored at 21-25° C., 18 days): 12.8 µg/mL | Stability of Plant-Derived Cannabinoid Compounds in AB Red (stored at 21-25° C., 19 days): 12.8 µg/mL | Stability of Plant-Derived Cannabinoid Compounds in AB Red (stored at 21-25° C., 22 days): 12.9 µg/mL | Stability of Plant-Derived Cannabinoid Compounds in AB Red (stored at 21-25° C., 23 days): 12.9 µg/mL | Stability of Plant-Derived Cannabinoid Compounds in AB Red (stored at 21-25° C., 24 days): 12.5 µg/mL | Stability of Plant-Derived Cannabinoid Compounds in AB Red (stored at 21-25° C., 25 days): 12.5 µg/mL | Stability of Plant-Derived Cannabinoid Compounds in AB Red (stored at 21-25° C., 26 days): 12.4 µg/mL | Stability of Plant-Derived Cannabinoid Compounds in AB Red (stored at 21-25° C., 29 days): 12.7 µg/mL | Stability of Plant-Derived Cannabinoid Compounds in AB Red (stored at 21-25° C., 30 days): 12.4 µg/mL | Stability of Plant-Derived Cannabinoid Compounds in AB Red (stored at 21-25° C., 60 days): 12.2 µg/mL | Stability of Plant-Derived Cannabinoid Compounds in AB Red (stored at 21-25° C., 90 days): 12.8 µg/mL | Stability of Plant-Derived Cannabinoid Compounds in AB Red (stored at 21-25° C., 120 days): 12.4 µg/mL | Stability of Plant-Derived Cannabinoid Compounds in AB Red (stored at 21-25° C., 150 days): 12.4 µg/mL | Stability of Plant-Derived Cannabinoid Compounds in AB Red (stored at 21-25° C., 180 days): 12.8 µg/mL | Stability of Plant-Derived Cannabinoid Compounds in AB Red (stored at 21-25° C., 210 days): 12.4 µg/mL | Stability of Plant-Derived Cannabinoid Compounds in AB Red (stored at 21-25° C., 240 days): 12.5 µg/mL | Stability of Plant-Derived Cannabinoid Compounds in AB Red (stored at 21-25° C., 270 days): 12.5 µg/mL | Stability of Plant-Derived Cannabinoid Compounds in AB Red (stored at 21-25° C., 300 days): 12.4 µg/mL | Stability of Plant-Derived Cannabinoid Compounds in AB Red (stored at 21-25° C., 330 days): 12.1 µg/mL | Stability of Plant-Derived Cannabinoid Compounds in AB Red (stored at 21-25° C., 360 days): 12.6 µg/mL | Stability of Plant-Derived Cannabinoid Compounds in AB Red (stored at 21-25° C., 390 days): 12.1 µg/mL | Stability of Plant-Derived Cannabinoid Compounds in AB Red (stored at 21-25° C., 420 days): 12.2 µg/mL | Stability of Plant-Derived Cannabinoid Compounds in AB Red (stored at 21-25° C., 450 days): 12.2 µg/mL | Stability of Plant-Derived Cannabinoid Compounds in AB Red (stored at 21-25° C., 480 days): 11.8 µg/mL | Stability of Plant-Derived Cannabinoid Compounds in AB Red (stored at 21-25° C., 510 days): 12.3 µg/mL | Stability of Plant-Derived Cannabinoid Compounds in AB Red (stored at 21-25° C., 540 days): 12.2 µg/mL | Stability of Plant-Derived Cannabinoid Compounds in AB Red (stored at 21-25° C., 570 days): 11.8 µg/mL
